Source: patent US5354892A, “Biaryl substituted 4-amino-butyric acid amides” (Ciba-Geigy Corporation, priority 1993, dated 1994)

Columns and labels:
[1] = tested on: rat plasma ANF concentration; assay: Effect on rat plasma ANF concentration (ANF-infused conscious rats, radioimmunoassay); format: in vivo; details: doses of about 1-30 mg/kg p.o., administered in 10% ethanol/PEG 400, ANF infusion 450 ng/kg/min i.v.
Experimental: The effect of the compounds of the invention on rat plasma ANF concentration can be determined as follows:
Male Sprague-Dawley rats (275-390 g) are anesthetized -with ketamine (150 mg/kg)/acepromazine (10%) and instrumented with catheters in the femoral artery and vein to obtain blood samples and infuse ANF. respectively. The rats are tethered with a swivel system and are allowed to recover for 24 hours before being studied in the conscious, unrestrained state.
In this assay, plasma ANF levels are determined in the presence and absence of NEP inhibition. On the day of study, all rats are infused continuously with ANF at 450 ng/kg/min. i.v. for the entire 5 hours of the experiment. Sixty minutes after beginning the infusion, blood samples for baseline ANF measurements are obtained (time 0) and the rats are then randomly divided into groups treated with the test compound or vehicle. Additional blood samples are taken 30, 60, 120, 180 and 240 minutes after administration of the test compound.
Plasma concentrations are determined by a specific radioimmunoassay. […] The supernatant is decanted and the pellets counted in a gamma counter. […] Plasma ANF levels are expressed as a percent of those measured in vehicle-treated animals which received ANF alone (450 ng/kg/min i.v.).

[2] = tested on: DOCA-salt hypertensive rats; assay: Antihypertensive effect in DOCA-salt hypertensive rats; format: in vivo; details: DOCA-salt hypertensive rat model; 30 mg/kg p.o., administered in PEG 400
Experimental: The antihypertensive effect can be determined in desoxycorticosterone acetate (DOCA)-salt hypertensive rats.
DOCA-salt hypertensive rats (280-380 g) are prepared by the standard method. Rats underwent a unilateral nephrectomy and one week later are implanted with silastic pellets containing 100 mg/kg of DOCA. The rats are maintained on 1% NaCl/0.2% KCl drinking water for three to five weeks until sustained hypertension is established. The antihypertensive activity is evaluated at this time.
Two days before an experiment, the rats are anesthetized with methoxyflurane and instrumented with catheters in the femoral artery to measure arterial blood pressure. Forty-eight hours later, baseline arterial pressure and heart rate are recorded during a 1 hour period. The test compound (30 mg/kg p.o.) or vehicle is then administered and the same cardiovascular parameters are monitored for an additional 5 hours.

## CCOC(=O)[C@H](C)C[C@@H](Cc1ccc(-c2ccccc2)cc1)NC(=O)CCC(=O)O [N-(3-carboxy-1-oxopropyl)-(4S)-(p-phenylphenylmethyl)-4-amino-2R-methylbutanoic acid ethyl ester]
[1]
  plasma ANF levels: significant increases in plasma ANF levels
[2]
  blood pressure: significant reduction in blood pressure
